According to patent US20170190671A1, “BIS(ARYL)CATECHOL DERIVATIVES AS HERBICIDES” (E I DU PONT DE NEMOURS AND COMPANY, priority 2014, published 2017):

What was measured:
[1] = test system: winter wheat (Triticum aestivum); experiment: Test C postemergence; format: in vivo; details: Triticum aestivum, post-emergence, 336 h, Postemergence, scale 0 to 100, read-out: Plant response rating, Wheat
Procedure, shortened: (§1)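 Visual ratings were made 13-15 days after treatment in the greenhouse, scored 0-100 against controls, where 100 means complete control. Treatments used a surfactant-containing non-phytotoxic solvent formulation, applied preemergence to seeds in loam-sand soil or postemergence to 2-18 cm plants (1-4 leaves) in peat-based medium.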

[2] = test system: chickweed (common chickweed, Stellaria media); experiment: Test C postemergence; format: in vivo; details: Stellaria media, post-emergence, Postemergence, scale 0 to 100, read-out: Plant response rating, Chickweed
Procedure, shortened: as §1

[3] = test system: barnyardgrass (Echinochloa crus-galli); experiment: Test C postemergence; format: in vivo; details: Echinochloa crus-galli, post-emergence, Postemergence, scale 0 to 100, read-out: Plant response rating, Barnyardgrass
Procedure, shortened: as §1

[4] = test system: velvetleaf (Abutilon theophrasti); experiment: Test C postemergence; format: in vivo; details: Abutilon theophrasti, post-emergence, Postemergence, scale 0 to 100, read-out: Plant response rating, Velvetleaf
Procedure, shortened: as §1

wild oat (Avena fatua) = experiment: Test C postemergence; format: in vivo; details: Avena fatua, post-emergence, Postemergence, scale 0 to 100, read-out: Plant response rating, Oat, Wild
Procedure, shortened: as §1

[5] = test system: ragweed (common ragweed, Ambrosia elatior); experiment: Test C postemergence; format: in vivo; details: Ambrosia artemisiifolia, post-emergence, 336 h, Postemergence, scale 0 to 100, read-out: Plant response rating, Ragweed
Procedure, shortened: as §1

[6] = test system: johnsongrass (Sorghum halepense); experiment: Test C postemergence; format: in vivo; details: Sorghum halepense, post-emergence, 336 h, Postemergence, scale 0 to 100, read-out: Plant response rating, Johnsongrass
Procedure, shortened: as §1

[7] = test system: blackgrass (Alopecurus myosuroides); experiment: Test C postemergence; format: in vivo; details: Alopecurus myosuroides, post-emergence, 336 h, Postemergence, scale 0 to 100, read-out: Plant response rating, Blackgrass
Procedure, shortened: as §1

[8] = test system: yellow nutsedge (Cyperus esculentus); experiment: Test C postemergence; format: in vivo; details: Cyperus, post-emergence, 336 h, Postemergence, scale 0 to 100, read-out: Plant response rating, Nutsedge, Yellow
Procedure, shortened: as §1

[9] = test system: oilseed rape (Brassica napus); experiment: Test C postemergence; format: in vivo; details: Brassica napus, post-emergence, Postemergence, scale 0 to 100, read-out: Plant response rating, Oilseed Rape
Procedure, shortened: as §1

[10] = test system: large (Lg) crabgrass (Digitaria sanguinalis); experiment: Test C postemergence; format: in vivo; details: Digitaria sanguinalis, post-emergence, 336 h, Postemergence, scale 0 to 100, read-out: Plant response rating, Crabgrass, Large
Procedure, shortened: as §1

corn (Zea mays) = experiment: Test C postemergence; format: in vivo; details: Zea mays, post-emergence, 336 h, Postemergence, scale 0 to 100
Procedure, shortened: as §1

[11] = test system: Italian ryegrass (Lolium multiflorum); experiment: Test C postemergence; format: in vivo; details: Lolium multiflorum, post-emergence, 336 h, Postemergence, scale 0 to 100, read-out: Plant response rating, Ryegrass, Italian
Procedure, shortened: as §1

[12] = test system: pigweed (Amaranthus retroflexus); experiment: Test C postemergence; format: in vivo; details: Amaranthus retroflexus, post-emergence, 336 h, Postemergence, scale 0 to 100, read-out: Plant response rating, Pigweed
Procedure, shortened: as §1

soybean (Glycine max) = experiment: Test C postemergence; format: in vivo; details: Glycine max, post-emergence, Postemergence, scale 0 to 100, read-out: Plant response rating, Soybean
Procedure, shortened: as §1

[13] = test system: waterhemp (common waterhemp, Amaranthus rudis); experiment: Test C postemergence; format: in vivo; details: Amaranthus tuberculatus, post-emergence, Postemergence, scale 0 to 100, read-out: Plant response rating, Waterhemp
Procedure, shortened: as §1

[14] = test system: lambsquarters (Chenopodium album); experiment: Test C postemergence; format: in vivo; details: Chenopodium album, post-emergence, 336 h, Postemergence, scale 0 to 100, read-out: Plant response rating, Lambsquarters
Procedure, shortened: as §1

kochia (Kochia scoparia) = experiment: Test C postemergence; format: in vivo; details: Bassia scoparia, post-emergence, Postemergence, scale 0 to 100, read-out: Plant response rating, Kochia
Procedure, shortened: as §1

[15] = test system: morningglory (Ipomoea coccinea); experiment: Test C preemergence; format: in vivo; details: Ipomoea, pre-emergence, 336 h, preemergence, scale 0 to 100, read-out: Plant response rating, Morningglory
Procedure, shortened: as §1

[16] = test system: oilseed rape (Brassica napus); experiment: Test C preemergence; format: in vivo; details: Brassica napus, pre-emergence, preemergence, scale 0 to 100, read-out: Plant response rating, Oilseed Rape
Procedure, shortened: as §1

[17] = test system: galium (catchweed bedstraw, Galium aparine); experiment: Test C preemergence; format: in vivo; details: Galium, pre-emergence, 336 h, preemergence, scale 0 to 100, read-out: Plant response rating, Galium
Procedure, shortened: as §1

[18] = test system: waterhemp (common waterhemp, Amaranthus rudis); experiment: Test C preemergence; format: in vivo; details: Amaranthus tuberculatus, pre-emergence, preemergence, scale 0 to 100, read-out: Plant response rating, Waterhemp
Procedure, shortened: as §1

## Fc1cccc(Oc2ncc(Cl)cn2)c1Oc1ncc(Br)cn1 [Compound 27, 5-bromo-2-[2-fluoro-6-[(5-chloro-2-pyrimidinyl)oxy]phenoxy]pyrimidine]
[1]; 31 g ai/ha
  plant injury at 31 g/ha: 0%
[1]; 62 g ai/ha
  plant injury at 62 g/ha: 0%
[1]; 125 g ai/ha
  plant injury at 125 g/ha: 0%
[1]; 250 g ai/ha
  plant injury at 250 g/ha: 0%
[2]; 31 g ai/ha
  pest or weed control at 31 g/ha: 45%
[2]; 62 g ai/ha
  pest or weed control at 62 g/ha: 40%
[2]; 125 g ai/ha
  pest or weed control at 125 g/ha: 70%
[2]; 250 g ai/ha
  pest or weed control at 250 g/ha: 80%
[3]; 31 g ai/ha
  pest or weed control at 31 g/ha: 5%
[3]; 62 g ai/ha
  pest or weed control at 62 g/ha: 5%
[3]; 125 g ai/ha
  pest or weed control at 125 g/ha: 5%
[3]; 250 g ai/ha
  pest or weed control at 250 g/ha: 5%
[4]; 31 g ai/ha
  pest or weed control at 31 g/ha: 15%
[4]; 62 g ai/ha
  pest or weed control at 62 g/ha: 35%
[4]; 125 g ai/ha
  pest or weed control at 125 g/ha: 65%
[4]; 250 g ai/ha
  pest or weed control at 250 g/ha: 65%
Wild oat (Avena fatua); 31 g ai/ha
  pest or weed control at 31 g/ha: 0%
Wild oat (Avena fatua); 62 g ai/ha
  pest or weed control at 62 g/ha: 5%
Wild oat (Avena fatua); 125 g ai/ha
  pest or weed control at 125 g/ha: 10%
Wild oat (Avena fatua); 250 g ai/ha
  pest or weed control at 250 g/ha: 15%
[5]; 31 g ai/ha
  pest or weed control at 31 g/ha: 15%
[5]; 62 g ai/ha
  pest or weed control at 62 g/ha: 35%
[5]; 125 g ai/ha
  pest or weed control at 125 g/ha: 60%
[5]; 250 g ai/ha
  pest or weed control at 250 g/ha: 80%
[6]; 31 g ai/ha
  pest or weed control at 31 g/ha: 0%
[6]; 62 g ai/ha
  pest or weed control at 62 g/ha: 5%
[6]; 125 g ai/ha
  pest or weed control at 125 g/ha: 5%
[6]; 250 g ai/ha
  pest or weed control at 250 g/ha: 10%
[7]; 31 g ai/ha
  pest or weed control at 31 g/ha: 5%
[7]; 62 g ai/ha
  pest or weed control at 62 g/ha: 5%
[7]; 125 g ai/ha
  pest or weed control at 125 g/ha: 5%
[7]; 250 g ai/ha
  pest or weed control at 250 g/ha: 5%
[8]; 31 g ai/ha
  pest or weed control at 31 g/ha: 0%
[8]; 62 g ai/ha
  pest or weed control at 62 g/ha: 5%
[8]; 125 g ai/ha
  pest or weed control at 125 g/ha: 10%
[8]; 250 g ai/ha
  pest or weed control at 250 g/ha: 10%
[9]; 31 g ai/ha
  plant injury at 31 g/ha: 30%
[9]; 62 g ai/ha
  plant injury at 62 g/ha: 50%
[9]; 125 g ai/ha
  plant injury at 125 g/ha: 55%
[9]; 250 g ai/ha
  plant injury at 250 g/ha: 60%
[10]; 31 g ai/ha
  pest or weed control at 31 g/ha: 5%
[10]; 62 g ai/ha
  pest or weed control at 62 g/ha: 5%
[10]; 125 g ai/ha
  pest or weed control at 125 g/ha: 10%
[10]; 250 g ai/ha
  pest or weed control at 250 g/ha: 20%
Corn (Zea mays); 31 g ai/ha
  Corn plant response rating (crop injury, 0 = no effect, 100 = complete kill) at 31 g/ha: 10%
Corn (Zea mays); 62 g ai/ha
  Corn plant response rating (crop injury, 0 = no effect, 100 = complete kill) at 62 g/ha: 15%
Corn (Zea mays); 125 g ai/ha
  Corn plant response rating (crop injury, 0 = no effect, 100 = complete kill) at 125 g/ha: 20%
Corn (Zea mays); 250 g ai/ha
  Corn plant response rating (crop injury, 0 = no effect, 100 = complete kill) at 250 g/ha: 25%
[11]; 31 g ai/ha
  pest or weed control at 31 g/ha: 0%
[11]; 62 g ai/ha
  pest or weed control at 62 g/ha: 0%
[11]; 125 g ai/ha
  pest or weed control at 125 g/ha: 5%
[11]; 250 g ai/ha
  pest or weed control at 250 g/ha: 5%
[12]; 31 g ai/ha
  pest or weed control at 31 g/ha: 85%
[12]; 62 g ai/ha
  pest or weed control at 62 g/ha: 90%
[12]; 125 g ai/ha
  pest or weed control at 125 g/ha: 95%
[12]; 250 g ai/ha
  pest or weed control at 250 g/ha: 98%
Soybean (Glycine max); 31 g ai/ha
  plant injury at 31 g/ha: 65%
Soybean (Glycine max); 62 g ai/ha
  plant injury at 62 g/ha: 75%
Soybean (Glycine max); 125 g ai/ha
  plant injury at 125 g/ha: 90%
Soybean (Glycine max); 250 g ai/ha
  plant injury at 250 g/ha: 90%
[13]; 31 g ai/ha
  pest or weed control at 31 g/ha: 70%
[13]; 62 g ai/ha
  pest or weed control at 62 g/ha: 75%
[13]; 125 g ai/ha
  pest or weed control at 125 g/ha: 90%
[13]; 250 g ai/ha
  pest or weed control at 250 g/ha: 100%
[14]; 31 g ai/ha
  pest or weed control at 31 g/ha: 55%
[14]; 62 g ai/ha
  pest or weed control at 62 g/ha: 65%
[14]; 125 g ai/ha
  pest or weed control at 125 g/ha: 80%
[14]; 250 g ai/ha
  pest or weed control at 250 g/ha: 95%
Kochia (Kochia scoparia); 31 g ai/ha
  pest or weed control at 31 g/ha: 40%
Kochia (Kochia scoparia); 62 g ai/ha
  pest or weed control at 62 g/ha: 80%
Kochia (Kochia scoparia); 125 g ai/ha
  pest or weed control at 125 g/ha: 85%
Kochia (Kochia scoparia); 250 g ai/ha
  pest or weed control at 250 g/ha: 95%
other
  melting point: 145 to 148 °C
[15]; 31 g ai/ha
  pest or weed control at 31 g/ha: 5%
[15]; 62 g ai/ha
  pest or weed control at 62 g/ha: 40%
[15]; 125 g ai/ha
  pest or weed control at 125 g/ha: 98%
[16]; 31 g ai/ha
  plant injury at 31 g/ha: 85%
[16]; 62 g ai/ha
  plant injury at 62 g/ha: 100%
[16]; 125 g ai/ha
  plant injury at 125 g/ha: 100%
[16]; 250 g ai/ha
  plant injury at 250 g/ha: 100%
[17]; 31 g ai/ha
  pest or weed control at 31 g/ha: 100%
[17]; 62 g ai/ha
  pest or weed control at 62 g/ha: 100%
[17]; 125 g ai/ha
  pest or weed control at 125 g/ha: 100%
[18]; 31 g ai/ha
  pest or weed control at 31 g/ha: 100%
[18]; 62 g ai/ha
  pest or weed control at 62 g/ha: 100%
[18]; 125 g ai/ha
  pest or weed control at 125 g/ha: 100%
[18]; 250 g ai/ha
  pest or weed control at 250 g/ha: 100%
